Several values for one entry are separate records, joined by “and”; a condition that tells them apart may be missing. Equal entries are not always repeated. Where two headings read alike, the source gives them in different places.
Columns and labels:
[1] = system: human cervical carcinoma (HeLa) cell line; assay: MTS antiproliferative (cytotoxicity) assay, HeLa; type: cell-based; conditions: HeLa; for SI (selectivity index), HeLa: Vero as reference cell line; for IC50: Homo sapiens
Protocol: (§1) The cytotoxicity of synthesized 3-azaspiro[bicyclo[3.1.0]hexane-2,5′-pyrimidines] 4 against human erythroleukemia (K562), cervical carcinoma (HeLa), and T lymphocyte (Jurkat), as well as mouse colon carcinoma (CT26) and African green monkey kidney epithelial (Vero) cell lines as reference, was evaluated in vitro by the standard MTS assay for 24 and 72 h.
(§2) All the cell lines (human cervical carcinoma (HeLa), erythroleukemia (K-562), and T lymphocyte (Jurkat) as well as mouse colon carcinoma (CT26) and African green monkey kidney epithelial (Vero)) were obtained from the cell repository “Vertebrate cell culture collection” (supported by the Ministry of Science and Higher Education of the Russian Federation, agreement №075-15-2021-683, Institute of Cytology, Russian Academy of Sciences, Saint Petersburg, Russia). HeLa, Jurkat, and Vero cells were cultured in DMEM (HyClone, South Logan, UT, USA) supplemented with 10% (v/v) fetal bovine serum (Hyclone, GE Healthcare Life Sciences, Logan, UT, USA), and gentamicin (Sigma-Aldrich, St. Louis, MO, USA) at 37 °C in a humidified atmosphere with 5% CO2. K-562 and CT26 cells were grown at RPMI medium (Hyclone, GE Healthcare Life Sciences, Logan, UT, USA), with the same supplements and conditions.
(§3) To evaluate the in vitro toxicity of compounds synthesized, cells were seeded into 96-well plates at a density of 5 × 10^3 cells per well. On the next day, tested compounds were added to the wells at concentrations ranging from […], followed by incubation for 1 and 3 days. Cell proliferation was determined by adding 20 μL of MTS reagent (BioVision, Milpitas, CA, USA) stock solution per well. Each plate was incubated for 2 h at 37 °C in a humidified, 5% CO2 atmosphere. The plates were then read at 495 nm using plate spectrophotometer (Multiskan GO, Thermo Fisher Scientific, Waltham, MA, USA). All samples were measured in triplicates.

[2] = system: human T lymphocyte (Jurkat) cell line; assay: MTS antiproliferative (cytotoxicity) assay, Jurkat; type: cell-based; conditions: for IC50: Homo sapiens, MTS; for SI (selectivity index), Jurkat: Vero as reference cell line
Protocol: The cytotoxicity of synthesized 3-azaspiro[bicyclo[3.1.0]hexane-2,5′-pyrimidines] 4 against human erythroleukemia (K562), cervical carcinoma (HeLa), and T lymphocyte (Jurkat), as well as mouse colon carcinoma (CT26) and African green monkey kidney epithelial (Vero) cell lines as reference, was evaluated in vitro by the standard MTS assay for 24 and 72 h. The results are presented in Figure 1, Figure 2, Figure 3, Figure 4 and Figure 5 (data on all, tested on K562, HeLa, and CT26 cell lines’ compounds, are given at SI, Figures S1–S3). […] Replacement of the phenyl group by either the carboxymethyl or N-isopropylcarbamoyl group has led to a significant decrease in the activity of spiro-fused cycloadducts comprising azabicyclo[3.1.0]hexane and alloxane moieties.
as §2, §3

[3] = system: mouse colon carcinoma (CT26) cell line; assay: MTS antiproliferative (cytotoxicity) assay, CT26; type: cell-based; conditions: for SI (selectivity index), CT26: Vero as reference cell line; for IC50: Mus musculus
Protocol: as §1, §2, §3

CT26 cells [4] = assay: Annexin V-FITC/DAPI cell death analysis, CT26; type: cell-based, mouse; conditions: CT26, 10 μg/mL, 72 h; for Necrotic Cells, %: control 0.0 ± 0.0; for Late Apoptotic Cells, %: control 0.9 ± 0.4; for Early Apoptotic Cells, %: control 10.5 ± 0.7; for Live Cells, %: control 88.5 ± 1.1
Protocol: The results of cell death detection after the exposure of the HeLa and CT26 cell lines to spiro-fused cycloadducts 4c–i at a dose of 10 μg/mL for 72 h, using Annexin V-FITC/DAPI staining, are shown in Figure 6 and Figure 7, respectively.
Cells were seeded in 24-well plates, 5 × 10^4 cells per well. After 24 h incubation, cells were treated with compounds 4c–i for 72 h. Then, cells were washed, harvested by trypsinisation, stained with Annexin V-FITC ([…]) and DAPI (Thermo Fisher Scientific, Waltham, MA, USA), in accordance with the protocol of the manufacturer, and analyzed by flow cytometry. The proapoptotic effect of azaspiro[bicyclo[3.1.0]hexane-2,5′-pyrimidines] 4c–i was evaluated by an Annexin V-FITC/DAPI (AV/DAPI) dual-staining assay to examine the occurrence of phosphatidylserine externalization, which facilitated the detection of live cells (lower-left quadrant; AV−/DAPI−), early apoptotic cells (upper-left quadrant; AV+/DAPI−), late apoptotic cells (upper-right quadrant; AV+/DAPI+), and necrotic cells (lower-right quadrant; AV−/DAPI+).

HeLa cells = assay: Cell cycle distribution by flow cytometry (propidium iodide), HeLa; type: cell-based, human; conditions: for SubG1 (%) / G2/M (%) / S (%) / G0/G1 (%): HeLa, 10 μg/mL, 24 h; for SubG1 (%): control 2.3 ± 0.4; for G2/M (%): control 12.2 ± 1.3; for S (%): control 12.5 ± 1.7; for G0/G1 (%): control 73.1 ± 2.6; for cytostatic effect (cell cycle), HeLa: HeLa cell line
Protocol: (§4) One of the indicators of the influence of biologically active products on the cells is the changed distribution of cells during different stages of the cell cycle. In this work, recently synthesized compounds were tested using flow cytometry for their effect on the distribution of cells in the cell cycle (G0/G1, G2/M, and S). Figure 8, Figure 9 and Figure 10 and Table 3 show the typical data after processing the results from three replicates of each experiment.
(§5) The distribution of HeLa and CT26 cells in the G0/G1-, S-, and G2/M-phases of the cell cycle was obtained by quantification of DNA content in propidium-iodide-stained cells using flow cytometry. Briefly, cells were seeded in 24-well plates at a density of 5 × 10^4 cells per well. After 24 h incubation, cells were exposed to 10 μg/mL of compounds 4c–i (the structure is provided in Scheme 1) for 24 h. The effects of compounds 4d, 4e, 4g, 4h were additionally tested at concentrations of 2 and 5 μg/mL. After incubation with drugs, the cells were detached by exposure to trypsin-EDTA for 5 min at 37 °C and then collected by pipetting. This was followed by treatment with 0.2 mg/mL saponin (Fluka, Waltham, MA, USA), 0.25 mg/mL RNase (Sigma-Aldrich, St. Louis, MO, USA), and 0.05 mg/mL propidium iodide (Invitrogen, Carlsbad, CA, USA). After washing, the samples were analyzed by standard flow cytometer (BD FACSCanto II, Becton Dickinson, San Jose, CA, USA). Then, 10,000 events were acquired for the sample. Data processing was performed using BD FACSDiva 9.0 software.

[5] = system: African green monkey kidney epithelial (Vero) cell line; assay: MTS antiproliferative (cytotoxicity) assay, Vero (reference); type: cell-based; conditions: Chlorocebus sabaeus, Vero
Protocol: as §1, §2, §3

CT26 cells [6] = assay: Cell cycle distribution by flow cytometry (propidium iodide), CT26; type: cell-based, mouse; conditions: for SubG1 (%) / G2/M (%) / S (%) / G0/G1 (%): CT26, 10 μg/mL, 24 h; for SubG1 (%): control 3.6 ± 0.6; for G2/M (%): control 12.3 ± 0.9; for S (%): control 40.1 ± 1.5; for G0/G1 (%): control 44.0 ± 1.7; for cytostatic effect (cell cycle), CT26: CT26 cell line
Protocol: as §4, §5

[7] = 24 h, read-out: IC50, HeLa, 24 h
[8] = 72 h, read-out: IC50, HeLa, 72 h
[9] = 24 h, read-out: IC50, Jurkat, 24 h
[10] = 72 h, read-out: IC50, Jurkat, 72 h
[11] = CT26, 24 h, read-out: IC50, CT26, 24 h
[12] = CT26, 72 h, read-out: IC50, CT26, 72 h
[13] = 24 h, read-out: IC50, Vero, 24 h
[14] = 72 h, read-out: IC50, Vero, 72 h

Compound | SI (selectivity index), HeLa [1] | IC50 [1, 7] [µM] | IC50 [1, 8] [µM] | IC50 [2, 9] [µM] | IC50 [2, 10] [µM] | SI (selectivity index), Jurkat [2] | SI (selectivity index), CT26 [3] | IC50 [3, 11] [µM] | IC50 [3, 12] [µM] | Necrotic Cells, % (CT26 cells [4]) [%] | Late Apoptotic Cells, % (CT26 cells [4]) [%] | Early Apoptotic Cells, % (CT26 cells [4]) [%] | Live Cells, % (CT26 cells [4]) | SubG1 (%) (HeLa cells) | G2/M (%) (HeLa cells) | S (%) (HeLa cells) | G0/G1 (%) (HeLa cells) | IC50 [5, 13] [µM] | IC50 [5, 14] [µM] | SubG1 (%) (CT26 cells [6]) | other results
CC[C@@H]1NC2(C(=O)NC(=O)NC2=O)[C@]2(c3ccccc3)[C@@H](c3ccccc3)[C@]12c1ccccc1 [Compound 4c] | 1.3 | 21 ± 2 | 13 ± 2 | 149 ± 33 | 15 ± 2 | 1.1 | 0.8 | 27 ± 2 | 20 ± 2 | 1.8 ± 0.8 | 6.4 ± 1.0 | 1.9 ± 0.3 | 89.8 ± 0.5% | 8.1 ± 1.9 | 11.0 ± 1.5 | 17.6 ± 1.2 | 63.3 ± 2.2 | 47 ± 11 | 16 ± 2 | 2.0 ± 0.4 | G2/M (%) (CT26 cells [6]): 13.2 ± 2.9 %; S (%) (CT26 cells [6]): 16.3 ± 1.7 %; G0/G1 (%) (CT26 cells [6]): 68.5 ± 3.0 %
CCC[C@@H]1NC2(C(=O)NC(=O)NC2=O)[C@]2(c3ccccc3)[C@@H](c3ccccc3)[C@]12c1ccccc1 [Compound 4d] | 1.1 | 17 ± 2 | 15 ± 2 | 15 ± 2 | 13 ± 2 | 1.3 | 1.3 | 17 ± 2 | 13 ± 2 | 1.1 ± 0.3 | 56.4 ± 2.4 | 9.6 ± 0.5 | 32.8 ± 3.0 % | 18.1 ± 1.0 | 8.4 ± 1.5 | 15.5 ± 1.1 | 58.0 ± 4.4 | 48 ± 4 | 16 ± 2 | 12.2 ± 1.1 | G2/M (%) (CT26 cells [6]): 17.9 ± 0.6 %; S (%) (CT26 cells [6]): 34.4 ± 2.3 %; G0/G1 (%) (CT26 cells [6]): 35.6 ± 1.0 %; cytostatic effect (cell cycle), CT26 (CT26 cells [6]): best effect
CCCC[C@@H]1NC2(C(=O)NC(=O)NC2=O)[C@]2(c3ccccc3)[C@@H](c3ccccc3)[C@]12c1ccccc1 [Compound 4e] | 0.8 | 13 ± 2 | 13 ± 4 | 12 ± 2 | 9 ± 2 | 1.2 | 1.7 | 10 ± 2 | 6 ± 2 | 1.4 ± 0.1 | 61.6 ± 0.5 | 23.4 ± 0.8 | 13.5% and 13.5 ± 0.4 % | 34.4 ± 5.8 | 5.7 ± 0.9 | 16.7 ± 1.2 | 43.1 ± 1.4 | 23 ± 2 | 10 ± 2 | 19.3 ± 5.1 | cytostatic effect (cell cycle), HeLa (HeLa cells): strongest cytostatic effect; G2/M (%) (CT26 cells [6]): 14.1 ± 9.4%; S (%) (CT26 cells [6]): 28.5 ± 1.8 %; G0/G1 (%) (CT26 cells [6]): 38.1 ± 6.4 %; cytostatic effect (cell cycle), CT26 (CT26 cells [6]): best effect
CC(C)C[C@@H]1NC2(C(=O)NC(=O)NC2=O)[C@]2(c3ccccc3)[C@@H](c3ccccc3)[C@]12c1ccccc1 [Compound 4f] | 0.5 | 19 ± 2 | 23 ± 6 | 11 ± 2 | 9 ± 2 | 1.2 | 1.0 | 17 ± 2 | 10 ± 2 | 1.9 ± 0.5 | 57.8 ± 3.1 | 6.2 ± 1.2 | 34.1 ± 3.8 % | 10.5 ± 2.0 | 12.8 ± 1.3 | 15.2 ± 1.2 | 61.5 ± 3.3 | 48 ± 6 | 10 ± 2 | 24.9 ± 5.2 | G2/M (%) (CT26 cells [6]): 13.5 ± 0.9 %; S (%) (CT26 cells [6]): 31.9 ± 2.6 %; G0/G1 (%) (CT26 cells [6]): 29.7 ± 1.4 %; cytostatic effect (cell cycle), CT26 (CT26 cells [6]): best effect
CCCCCC[C@@H]1NC2(C(=O)NC(=O)NC2=O)[C@]2(c3ccccc3)[C@@H](c3ccccc3)[C@]12c1ccccc1 [Compound 4g] | 1.1 | 15 ± 2 | 13 ± 2 | 11 ± 2 | 8 ± 2 | 1.8 | 1.2 | 22 ± 2 | 12 ± 2 | 0.3 ± 0.1 | 10.0 ± 0.3 | 5.5 ± 0.1 | 84.2 ± 0.3 % | 39.5 ± 5.0 | 5.3 ± 0.7 | 13.3 ± 0.8 | 41.8 ± 3.0 | 33 ± 6 | 14 ± 2 | 1.9 ± 0.5 | cytostatic effect (cell cycle), HeLa (HeLa cells): strongest cytostatic effect; G2/M (%) (CT26 cells [6]): 19.4 ± 4.7 %; S (%) (CT26 cells [6]): 17.0 ± 4.3 %; G0/G1 (%) (CT26 cells [6]): 61.7 ± 9.4 %

— publication PMC9506420, “Biological Evaluation of 3-Azaspiro[Bicyclo[3.1.0]Hexane-2,5′-Pyrimidines] as Potential Antitumor Agents” (International Journal of Molecular Sciences, 2022)
